Like-named read-outs stand apart in the source and are kept apart here.
Molecular target: T1, Jak1 (Homo sapiens, UniProt P23458)
T1 construct: using a recombinant purified GST-tagged catalytic domain for each enzyme; GST; purchased Invitrogen M4290
Experiment: Jak Biochemical HTRF Assay (Jak1)
Conditions: recombinant GST-tagged catalytic domain
Summary of the method: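 Recombinant GST-tagged Jak1 catalytic domain was preincubated with compound and peptide substrate for 30 min at room temperature, and the reaction was then started with ATP and run 120 min. Buffer contained 2 mM DTT and 0.05% BSA. Read-out was HTRF (665/615 nm) with Eu-pY20 antibody and streptavidin-Dylight, and IC50 values came from 4-parameter fits of percent inhibition.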

[1] = IC50 class, read-out: Jak1 activity
[2] = 31.8 μM ATP, read-out: Representative IC50 values

T1 sequence (P23458 875-1153 limits assumed): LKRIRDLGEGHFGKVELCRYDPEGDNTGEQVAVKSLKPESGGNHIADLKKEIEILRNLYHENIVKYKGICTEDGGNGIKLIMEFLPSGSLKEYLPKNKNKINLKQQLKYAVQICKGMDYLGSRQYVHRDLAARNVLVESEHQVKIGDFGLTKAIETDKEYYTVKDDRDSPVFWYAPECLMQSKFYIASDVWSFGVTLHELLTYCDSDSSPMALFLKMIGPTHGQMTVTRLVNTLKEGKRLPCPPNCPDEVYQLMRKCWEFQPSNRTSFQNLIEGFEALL

Compound | IC50 [1] [nM] | IC50 [2] [nM]
O=C(c1ncoc1C1CC1)N1CCC[C@@H]2[C@H]1CCN2c1ncnc2[nH]ccc12 [Example 29-41, 4-{(3aR,7aR)-4-[(5-cyclopropyl-1,3-oxazol-4-yl)carbonyl]octahydro-1H-pyrrolo[3,2-b]pyridin-1-yl}-7H-pyrrolo[2,3-d]pyrimidine] | 10 to 100 | –
Cn1c(C(=O)N2CCC[C@@H]3[C@H]2CCN3c2ncnc3[nH]ccc23)cc2ccccc21 [Example 29-21, 4-{(3aR,7aR)-4-[(1-methyl-1H-indol-2-yl)carbonyl]octahydro-1H-pyrrolo[3,2-b]pyridin-1-yl}-7H-pyrrolo[2,3-d]pyrimidine] | 10 to 100 | –
O=C(c1ccc(N2CCOCC2)cc1)N1CCCC2C1CCN2c1ncnc2[nH]ccc12 [Example 29-1, (3aS,7aS and 3aR,7aR) 4-{4-[(4-morpholin-4-ylphenyl)carbonyl]octahydro-1H-pyrrolo[3,2-b]pyridin-1-yl}-7H-pyrrolo[2,3-d]pyrimidine] | 100 to 1000 | –
O=C(C(c1ccccc1)c1ccccc1)N1CCC[C@@H]2[C@H]1CCN2c1ncnc2[nH]ccc12 [Example 29-24, 4-[(3aR,7aR)-4-(diphenylacetyl)octahydro-1H-pyrrolo[3,2-b]pyridin-1-yl]-7H-pyrrolo[2,3-d]pyrimidine] | 100 to 1000 | –
O=C(c1nccc2ccccc12)N1CCC[C@@H]2[C@H]1CCN2c1ncnc2[nH]ccc12 [Example 29-47, 1-{[(3aR,7aR)-1-(7H-pyrrolo[2,3-d]pyrimidin-4-yl)octahydro-4H-pyrrolo[3,2-b]pyridin-4-yl]carbonyl}isoquinoline] | 10 to 100 | –
O=C1NCc2ccc(C(=O)N3CCC[C@@H]4[C@H]3CCN4c3ncnc4[nH]ccc34)cc21 [Example 29-62, 6-{[(3aR,7aR)-1-(7H-pyrrolo[2,3-d]pyrimidin-4-yl)octahydro-4H-pyrrolo[3,2-b]pyridin-4-yl]carbonyl}-2,3-dihydro-1H-isoindol-1-one] | 10 to 100 | –
C[C@H](OC(=O)N1CCCC2C1CCN2c1ncnc2[nH]ccc12)c1ccccc1 (stereo partly drawn) [Example 3-24, (1S)-1-phenylethyl 1-(7H-pyrrolo[2,3-d]pyrimidin-4-yl)octahydro-4H-pyrrolo[3,2-b]-pyridine-4-carboxylate] | 10 to 100 | –
O=C(OCCc1ccc2c(c1)CCO2)N1CCC[C@@H]2[C@H]1CCN2c1ncnc2[nH]ccc12 [Example 3-28, 2-(2,3-dihydro-1-benzofuran-5-yl)ethyl (3aR,7aR)-1-(7H-pyrrolo[2,3-d]pyrimidin-4-yl)octahydro-4H-pyrrolo[3,2-b]pyridine-4-carboxylate] | 10 to 100 | –
COC(=O)c1ccc(CN(C)C(=O)N2CCC[C@@H]3[C@H]2CCN3c2ncnc3[nH]ccc23)cc1 [Example 24, methyl 4-[(methyl{[(3aR,7aR)-1-(7H-pyrrolo[2,3-d]pyrimidin-4-yl)octahydro-4H-pyrrolo[3,2-b]-pyridin-4-yl]carbonyl}amino)methyl]benzoate] | 1 to 10 | –
O=C(OCCN1CCCC1)N1CCC[C@@H]2[C@H]1CCN2c1ncnc2[nH]ccc12 [Example 3-40, 2-pyrrolidin-1-ylethyl (3aR,7aR)-1-(7H-pyrrolo[2,3-d]pyrimidin-4-yl)octahydro-4H-pyrrolo[3,2-b]pyridine-4-carboxylate] | 100 to 1000 | –
O=C(OCCc1cc(F)cc(F)c1)N1CCC[C@@H]2[C@H]1CCN2c1ncnc2[nH]ccc12 [Example 3-44, 2-(3,5-difluorophenyl)ethyl (3aR,7aR)-1-(7H-pyrrolo[2,3-d]pyrimidin-4-yl)octahydro-4H-pyrrolo[3,2-b]pyridine-4-carboxylate] | 10 to 100 | –
O=C(Cn1cnc2ccccc21)N1CCC[C@@H]2[C@H]1CCN2c1ncnc2[nH]ccc12 [Example 29-53, 4-[(3aR,7aR)-4-(1H-benzimidazol-1-ylacetyl)octahydro-1H-pyrrolo[3,2-b]pyridin-1-yl]-7H-pyrrolo[2,3-d]pyrimidine] | 100 to 1000 | –
COC(=O)c1cccc(OC(=O)N2CCCC3C2CCN3c2ncnc3[nH]ccc23)c1 (centres unmarked) [Example 3-26, 3-(methoxyeaxbonyl)phenyl 1-(7H-pyrrolo[2,3-d]pyrimidin-4-yl)octahydro-4H-pyrrolo[3,2-b]pyridine-4-carboxylate] | 10 to 100 | –
N#Cc1cccc(C(=O)N2CCC[C@@H]3[C@H]2CCN3c2ncnc3[nH]ccc23)c1 [Example 29-31, 3-{[(3aR,7aR)-1-(7H-pyrrolo[2,3-d]pyrimidin-4-yl)octahydro-4H-pyrrolo[3,2-b]pyridin-4-yl]carbonyl}benzonitrile] | 10 to 100 | –
O=C(c1cn2ccc(Cl)cc2n1)N1CCC[C@@H]2[C@H]1CCN2c1ncnc2[nH]ccc12 [Example 29-60, 4-{(3aR,7aR)-4-[(7-chloroimidazo[1,2-a]pyridin-2-yl)carbonyl]octahydro-1H-pyrrolo[3,2-b]pyridin-1-yl}-7H-pyrrolo[2,3-d]pyrimidine] | 100 to 1000 | –
O=C(c1cn2ccccc2n1)N1CCC[C@@H]2[C@H]1CCN2c1ncnc2[nH]ccc12 [Example 29-25, 4-[(3aR,7aR)-4-(imidazo[1,2-a]pyridin-2-ylcarbonyl)octahydro-1H-pyrrolo[3,2-b]pyridin-1-yl]-7H-pyrrolo[2,3-d]pyrimidine] | 100 to 1000 | –
O=C(c1ccccn1)N1CCC[C@@H]2[C@H]1CCN2c1ncnc2[nH]ccc12 [Example 29-11, 4-[(3aR,7aR)-4-(pyridin-2-ylcarbonyl)octahydro-1H-pyrrolo[3,2-b]pyridin-1-yl]-7H-pyrrolo[2,3-d]pyrimidine] | 100 to 1000 | –

Compound | IC50 [1] [nM] | IC50 [2] [nM]
COCCOC(=O)N1CCC[C@@H]2[C@H]1CCN2c1ncnc2[nH]ccc12 (single isomer, unassigned) [Example 3-35] | 10 to 100 | –
O=C(OCCc1cccc2ccccc12)N1CCC[C@@H]2[C@H]1CCN2c1ncnc2[nH]ccc12 [Example 3-34, 2-naphthalen-1-ylethyl (3aR,7aR)-1-(7H-pyrrolo[2,3-d]pyrimidin-4-yl)octahydro-4H-pyrrolo[3,2-b]pyridine-4-carboxylate] | 100 to 1000 | –
O=C(O)c1ccc(CCOC(=O)N2CCC[C@@H]3[C@H]2CCN3c2ncnc3[nH]ccc23)cc1 [Example 28, 4-[2-({[(3aR,7aR)-1-(7H-pyrrolo[2,3-d]pyrimidin-4-yl)octahydro-4H-pyrrolo[3,2-b]pyridin-4-yl]carbonyl}oxy)ethyl]benzoic acid] | 100 to 1000 | –
O=C(c1cc(-c2cccc(F)c2)no1)N1CCC[C@@H]2[C@H]1CCN2c1ncnc2[nH]ccc12 [Example 29-57, 4-[(3aR,7aR)-4-{[3-(3-fluorophenyl)isoxazol-5-yl]carbonyl}octahydro-1H-pyrrolo[3,2b]pryidin-1-yl]-7H-pyrrolo[2,3-d]pyrimidine] | 100 to 1000 | –
O=C(OCC1CCCCC1)N1CCC[C@@H]2[C@H]1CCN2c1ncnc2[nH]ccc12 [Example 3-46, cyclohexylmethyl (3aR,7aR)-1-(7H-pyrrolo[2,3-d]pyrimidin-4-yl)octahydro-4H-pyrrolo[3,2-b]pyridine-4-carboxylate] | 10 to 100 | –
CN1CCN(c2ccc(C(=O)N3CCCC4C3CCN4c3ncnc4[nH]ccc34)cc2)CC1 (centres unmarked) [Example 29-6, 4-(4-{[4-(4-methylpiperazin-1-yl)phenyl]carbonyl}octahydro-1H-pyrrolo[3,2-b]pyridin-1-yl)-7H-pyrrolo[2,3-d]pyrimidine] | 100 to 1000 | –
COC(=O)c1ccc(CNC(=O)N2CCC[C@@H]3[C@H]2CCN3c2ncnc3[nH]ccc23)cc1 [Example 23, methyl 4-[({[(3aR,7aR)-1-(7H-pyrrolo[2,3-d]pyrimidin-4-yl)octahydro-4H-pyrrolo[3,2-b]-pyridine-4-yl]carbonyl}amino)methyl]benzoate] | 10 to 100 | 39
O=C(c1ccsc1)N1CCC[C@@H]2[C@H]1CCN2c1ncnc2[nH]ccc12 [Example 29-32, 4-[(3aR,7aR)-4-(thiophen-3-ylcarbonyl)octahydro-1H-pyrrolo[3,2-b]pyridin-1-yl]-7H-pyrrolo[2,3-d]pyrimidine] | 10 to 100 | –
O=C(OCc1ccc(F)cc1)N1CCCC2C1CCN2c1ncnc2[nH]ccc12 (centres unmarked) [Example 3-2, 4-fluorobenzyl 1-(7H-pyrrolo[2,3-d]pyrimidin-4-yl)octahydro-4H-pyrrolo[3,2-b]-pyridine-4-carboxylate] | 10 to 100 | –
O=C(OCCCc1cccnc1)N1CCC[C@@H]2[C@H]1CCN2c1ncnc2[nH]ccc12 [Example 3-48, 3-pyridin-3-ylpropyl (3 aR,7 aR)-1-(7H-pyrrolo[2,3-d]pyrimidin-4-yl)octahydro-4H-pyrrolo[3,2-b]pyridine-4-carboxylate] | 10 to 100 | –
O=S(=O)(Cc1ccccc1)N1CCC[C@@H]2[C@H]1CCN2c1ncnc2[nH]ccc12 (single isomer, unassigned) [Example 32-7] | 10 to 100 | –
O=C(c1cncc2ccccc12)N1CCC[C@@H]2[C@H]1CCN2c1ncnc2[nH]ccc12 [Example 29-40, 4-{[(3aR,7aR)-1-(7H-pyrrolo[2,3-d]pyrimidin-4-yl)octahydro-4H-pyrrolo[3,2-b]pyridin-4-yl]carbonyl}isoquinoline] | 10 to 100 | –
O=C(c1cccnc1)N1CCC[C@@H]2[C@H]1CCN2c1ncnc2[nH]ccc12 [Example 29-10, 4-[(3aR,7aR)-4-(pyridin-3-ylcarbonyl)octahydro-1H-pyrrolo[3,2-b]pyridin-1-yl]-7H-pyrrolo[2,3-d]pyrimidine] | 10 to 100 | –
CN1CCN(CCOC(=O)N2CCC[C@@H]3[C@H]2CCN3c2ncnc3[nH]ccc23)CC1 [Example 3-41, 2-(4-methylpiperazin-1-yl)ethyl(3aR,7aR)-1-(7H-pyrrolo[2,3-d]pyrimidin-4-yl)octahydro-4H-pyrrolo[3,2-b]pyridine-4-carboxylate] | 100 to 1000 | 131
Cc1cccc(COC(=O)N2CCCC3C2CCN3c2ncnc3[nH]ccc23)c1 (centres unmarked) [Example 3-16, 3-methylbenzyl 1-(7H-pyrrolo[2,3-d]pyrimidin-4-yl)octahydro-4H-pyrrolo[3,2-b]-pyridine-4-carboxylate] | 10 to 100 | –
O=S(=O)(c1ccccc1)N1CCC[C@@H]2[C@H]1CCN2c1ncnc2[nH]ccc12 (single isomer, unassigned) [Example 32-6] | 10 to 100 | –

From patent US8937077B2, “Bicyclic diamines as janus kinase inhibitors” (Merck Sharp & Dohme Corp., priority 2010, dated 2015)
